Tested on: HEK293 cell lysates after 5 minutes serum stimulation
Test: Tagged substrates array: in vitro protein kinase reaction of the tagged peptide mix with cell lysate, sorted on tag array, anti-pTyr immunostaining
Format: biochemical
Details: Hundred micrograms of total cell lysate, 30 minutes at 37 degree Celsius; anti-pTyr monoclonal antibody mix, Cy5 secondary, GenePix scanner
Experimental: EDC/NHS combined cross-linking was performed to tag the peptide or substrate which needs to be sorted. Coupling buffer contains no Tris and no phosphate. Peptides and oligonucleotides in equimolar ratios [50 μg/ml in 10 mM sodium acetate buffer (pH 5.0)] were reacted with a 1:1 mixture of N-hydroxysuccinimide NHS and 1 -ethyl-3 -(3 -dimethylaminopropyl) carbodiimide EDC for 2 hours. The excess active groups were then blocked with 1 M ethanolamine (pH 8.5).
Peptides. Phosphotyrosine-containing and non-phosphorylated peptides were synthesized, HPLC purified and checked by mass spectroscopy. Peptides were stored under nitrogen at -80 degree. Celsius. The synthesized peptides were as following, phosphotyrosine, AEPDpYGALYE PLCgamma, SAAPpYLKTK Stat3-705, DDPSpYVNVQ SHC-317, PDHQpYYNDF SHC-239, TDDGpYMPMS IRS 1-608, GNGDpYMPMS IRS 1-628, SPGEpYVNIE IRS 1-895, KSLNpYIDLD IRS 1-1172, DLSTpYASIN IRS1-1222; non-phosphorylated, AEPDYGALYE, SAAPYLKTK, DDPSYVNVQ and PDHQYYNDF SHC, KDGATMKTF Akt, RGRSRSAPPN BAD, GEGTYGVVYK p34cdc2, GAGTPAATDEK, DGFVLTRLLE beta spectrin, NSIMKCDIDI Gamma actin, PGIADRMQKE beta actin.
Amino modified oligonucleotides used as tags. The amino modifications can be used either for slides coupling or for peptide coupling, or for coupling to any reactive substrates which needs to be sorted onto the array. Oligonucleotides are chosen with similar Tm and hybridization properties. Oligonucleotides can be substituted by any pair of complementary nucleic acids or PNAs without affecting the sensitivity or completeness of the assay. The length and sequence of the nucleic acids or PNAs is also not important as long as strands complementarity results in hibridization specificity. Here it is described a test experiment with 18 pairs of oligonucleotides. […]
Slide Overlay. […] After triple washing in TBST, and then TBS, fluorescent complexes are detected by using a GenePix microarrays scanner. […]

| Sequence | phosphorylation of sorted tagged substrate (FIG. 10) |
| --- | --- |
| AEPDYGALYE [Substrate S1] | moderately well phosphorylated |
| PDHQYYNDF [Substrate S4] | strongly phosphorylated |
| SAAPYLKTK [Substrate S2] | moderately well phosphorylated |

— US20010031469A1, “Methods for the detection of modified peptides, proteins and other molecules” (priority 2000, published 2001)
